Data taken from publication PMC6433934, “Preclinical Evaluation of Bispecific Adaptor Molecule Controlled Folate Receptor CAR-T Cell Therapy With Special Focus on Pediatric Malignancies” (Frontiers in Oncology, 2019).

What was measured:
[1] = test system: KB; assay: EC17 dose response, co-culture with E2-CAR-T cells, LDH specific lysis; type: cell-based, human; conditions: E/T 1:1, 24 h co-culture
From the text: (§1) To investigate EC17 CAM action in vitro, pure EGFRt-sorted CD4 and CD8 CAR-T cells were admixed in a 1:1 ratio and matching mock-transduced T cells were included per experimental design. Other than FR+/- isogenic pairs of AML and osteosarcoma cell lines, we added KB, MDA-MB-231 and OV90 to represent different histological tumor types and FR expression levels. All FR+ target cell lines were subjected to a direct ^3H-FA binding assay to quantitate the number of FR molecules bound/cell ([38]). Prior to co-culture experiments, cryopreserved CAR-T cells were allowed to recover for 2–3 days in T cell culture medium. All effector and target cells were pre-washed with FFRPMI to remove any exogenous FA that could compete against EC17. Short-term co-culture studies of ≤ 3 days were carried out in FFRPMI without adding any exogenous cytokines.
(§2) For an EC17 dose response study, FR+ cancer cell lines (KB, MDA-MB-231, HOS-FRα, THP1-FRβ, OV90) were co-cultured with EGFRt-sorted E2-CAR-T cells at an effector-to-target (E/T) ratio of 1:1 in the presence of EC17 ranging from 0.1 pM to 100 μM in 10-fold increments. After 24 h of co-culture, supernatants were harvested to determine target cell killing by Promega's CytoTox 96® LDH assay kit and expressed as specific lysis (%) normalized to basal levels in the absence of EC17. To study the kinetics of T cell activation and FR correlation in vitro, co-cultures were carried out in FR+/- cell lines at varying E/T ratios (1:27, 1:9, 1:3, 1:1, 3:1) in the continuous presence of 10 nM EC17. The kinetics of target cell killing (i.e., % specific lysis) were quantified after 16 and 48 h of co-culture and normalized to basal levels in the absence of EC17 at defined E/T ratios. Meanwhile, a portion of the supernatants was taken after 44 h of co-culture for measurement of IFNγ, IL-2, and TNFα. The LEGENDplex™ human Th1 cytokine panel (BioLegend, San Diego, CA) was used to determine CAR-T cell derived cytokines.

[2] = test system: HOS-FRα; assay: as above; type: cell-based, human
From the text: as §1, §2

[3] = test system: MDA-MB-231; assay: as above; type: cell-based, human; conditions: MDA-MB-231, E/T 1:1, 24 h co-culture
From the text: as §1, §2

[4] = test system: THP1-FRβ; assay: as above; type: cell-based, human
From the text: as §1, §2

[5] = test system: MDA-MB-231 tumor; assay: Kinetics of CAR-T cell expansion and tumor uptake in vivo; set-up: species or system NSG mice; conditions: ~4.8 million EGFRt-sorted E2-CAR-T cells day 0, EC17 500 nmol/kg weekly i.v.
Experimental: All animal care and use were performed according to NIH guidelines and in compliance with protocols approved by the Purdue University Animal Use and Care Committee. Female 4 to 5-weeks-old NOD/SCID gamma (NSG™) mice (stock number: 005557) were purchased from The Jackson Laboratory (Bar Harbor, ME). Unless specifically indicated, all animals were maintained on a FA-deficient diet (TestDiet, St. Louis, MO) upon arrival and throughout the study. To establish subcutaneous xenografts, MDA-MB-231 and HOS-FRα were implanted in the right flank region at 2.5 × 10^6 and 1 × 10^6 cells per animal, respectively. For intravenous xenografts, THP1-FRβ cells were inoculated at 5 × 10^6 cells per animal. Subcutaneous tumors were measured 2–3 times per week with a caliper and calculated using the ellipsoidal formula (length x width^2)/2. […] All animal doses (CAR-T cells, EC17, sodium fluorescein) were given intravenously.
To study CAR-T cell expansion in vivo, we started with 15 MDA-MB-231 tumor bearing mice having ~4.8 million EGFRt-sorted E2-CAR-T cells (1:1 CD4/CD8) injected on day 0. […] For each collection, fresh blood and tumor samples (if available) were analyzed for the presence of human CD3ε+ EGFRt+ CAR-T cells by flow cytometry. Moreover, we analyzed phenotypic changes of E2-CAR-T cells in the circulation (TSCM, TCM, TEM, and TEFF) and the activation status of tumor-infiltrating CAR-T cells (i.e., CD137/4-1BB, PD1).
For CAR-T cell analysis in the circulation, plasma was removed from a predetermined volume of whole blood collected into tubes containing ethylenediaminetetraacetic acid anticoagulant. […] A minimum of 20,000 propidium iodide negative live cell events were collected on the Gallios flow cytometer and analyzed with the Kaluza software, version 2.1 (Beckman Coulter, Brea, CA). CAR-positive T cells were identified in mouse blood as human CD3ε+ EGFRt+ events and absolute numbers per volume of blood were calculated using equal numbers of CountBright™ beads (Invitrogen, Carlsbad, CA) added to each sample. […]

[6] = Homo sapiens, curve fitted up to 100 nM
[7] = Homo sapiens, EC17, E/T 1:1, 24 h co-culture, curve fitted up to 100 nM

**Q.** What does the source list for `Nc1nc2ncc(CNc3ccc(C(=O)NC(CCC(=O)NCCNC(=S)Nc4ccc(-c5c6ccc(=O)cc-6oc6cc(O)ccc56)c(C(=O)O)c4)C(=O)O)cc3)nc2c(=O)[nH]1` (centres unmarked) [EC17, FA-(γ)-ethylenediamine-FITC]?
**A.** Max. lysis [1]: 11%; EC50 [1, 6]: 0.0053 nM; Max. lysis ([2]; E/T 1:1, 24 h co-culture): 18%; EC50 [2, 7]: 0.03 nM; EC50 [3, 6]: 0.0045 nM; Max. lysis [3]: 45%; Max. lysis ([4]; E/T 1:1, 24 h co-culture): 27%; EC50 [4, 7]: 0.015 nM; time of peak of circulating CAR-T cells [5]: ~15 days; tumor response ([5]; smaller tumors): started to respond after the second EC17 dose; persistence of circulating CAR-T cells ([5]; last analysis by flow cytometry): up to 30 days
